Reference: patent US9738600B2, “ROR gamma (RORγ) modulators” (LEAD PHARMA CEL MODELS IP B.V., priority 2013, dated 2017)
pIC50: −log10 of the molar value.

Tests used:
[1] = tested on: IL-17A production in anti-CD3/anti-CD28 stimulated peripheral blood mononuclear cells (PBMCs); experiment: Peripheral blood mononuclear cell (PBMC) IL-17 assay; format: cell-based; details: Homo sapiens, 120 h, inhibition of IL-17A production, 5 days, IL-17 ELISA, read-out: mean pIC50 (converted)
Experimental: The assay procedure and results are described below.
This assay is designed to measure the levels of IL-17A secreted from anti-CD3/anti-CD28 stimulated PBMCs with the aim of measuring RORγ mediated inhibition of IL-17A production.
The assay medium consists of 90% RPMI 1640 (Lonza), 10% heat inactivated fetal bovin serum (FBS, Lonza) and 100 U/mL penicillin/streptomycin solution.
Anti-CD3 antibody (BD Pharmingen) was diluted to 10 μg/ml in PBS (Lonza). 30 μL of 10 μg/ml anti-CD3 solution was added to the inner 60 wells, excluding any negative control wells, of a 96-well cell culture treated U-bottom plate (Greiner). Plates were incubated overnight (16-24 hours) at 37° C. and 5% CO2.
Peripheral blood mononuclear cells were separated from buffy coats (Sanquin) using Ficoll-Paque PREMIUM separation medium (GE Healthcare Life Sciences) according to manufacturer's protocol and re-suspended in assay medium at 37° C.
Test compounds were diluted, starting from a 10 mM dimethylsulfoxide (DMSO) stock solution, to serial dilutions in DMSO at 200× the final test concentration. Subsequently, these solutions were diluted in two dilution steps in assay medium to 10× the final test concentration. The DMSO concentration of the 10× test compound solution was 5%.
Anti-CD28 antibody (BD Pharmingen) was diluted to 20 μg/mL in PBS. The PBMCs were diluted to a concentration of 2.5×10^6 cells/mL in assay medium at 37° C.
For compound screening, the anti-CD3 coated plates were washed three times with PBS, the wells were subsequently aspirated using vacuum. To each screening well 80 μL of the PBMC suspension, 10 μL of the anti-CD28 solution and 10 μL of the 10× test compound solution was added, resulting in the final test concentration with 0.5% DMSO. All outer wells were filled with assay medium to prevent evaporation. Plates were incubated for 5 days at 37° C. and 5% CO2.
After incubation the plates were spun down at 1500 rpm for 4 minutes and the supernatant was collected. Subsequently, the IL-17A levels in the supernatants was determined using an IL-17 ELISA kit (human IL-17 DuoSet, R&D systems) according to manufacturer's protocol.
The half maximum inhibitory concentration (IC50) values for the test compounds were calculated from the IL-17A signal using GraphPad Prism software (GraphPad Software).

RORγ = biological target: T1, RORγ (Homo sapiens, UniProt P51449); experiment: RORγ GAL4 reporter gene assay; details: mean pIC50, inhibition of RORγ (GAL4-RORγ-LBD) in 293FT cells, luciferase readout, overnight incubation
T1 sequence (P51449 269-508 limits assumed): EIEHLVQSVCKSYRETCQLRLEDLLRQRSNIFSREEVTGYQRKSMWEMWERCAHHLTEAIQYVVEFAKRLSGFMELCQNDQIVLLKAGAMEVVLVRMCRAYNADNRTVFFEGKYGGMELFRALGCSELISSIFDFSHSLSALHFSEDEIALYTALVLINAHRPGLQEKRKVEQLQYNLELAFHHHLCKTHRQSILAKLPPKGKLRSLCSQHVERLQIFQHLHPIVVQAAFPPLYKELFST
Text: The RORγ ligand-binding domain (LBD) was fused to the yeast GAL4 DNA binding domain (DBD) and placed under the control of the human cytomegalovirus (CMV) immediate early promoter, using expression vector pFN26A (Promega) and standard recombinant DNA cloning methods.
To monitor the inhibitory effect of compounds on RORγ, a transcriptional reporter construct was used. The pGL4.35 vector (Promega) contains nine copies of the GAL4 Upstream Activator Sequence (UAS). This sequence drives the transcription of the luciferase reporter gene luc2P in response to binding of a fusion protein containing the GAL4 DNA binding domain, as for example expressed by the GAL4-RORγ-LBD and GAL4-VP16 expression vectors described above.
The day after transfection, cells were plated into 96 well plates, test compound was added and the plates were incubated overnight. Subsequently, the firefly luciferase activity was quantified using luciferase detection reagent and luminescence readout.
1500 μL of this reagent mixture was added to 5 μg of GAL4 fusion protein expression vector and 5 μg of the transcriptional reporter construct, and incubated at RT for 20 minutes.
Subsequently, the cells were washed with Phosphate Buffered Saline (PBS) (Lonza), after which the PBS was removed. To dissociate the cells, 1 ml of TrypLE Express (Invitrogen) was added to the flask, followed by incubation at RT until the cells visually started to detach. Cells were collected in 5 mL of assay medium (DMEM culture medium (Lonza), 10% dialyzed FBS (Invitrogen) and Pen/Strep (Lonza)) to achieve a single cell suspension. 10×10^6 cells were spun down and re-suspended in 10 mL of assay medium. Subsequently, the cell suspension was added to the transfection mix tube, and then transferred as a whole to a T75 flask (Greiner), followed by overnight (16-24 hours) incubation at 37° C. and 5% CO2.
For compound screening, the cells were harvested (as described above) and counted. […] 80 μL of cell suspension (60,000 cells) was plated per well into a white, flat bottom, tissue culture treated, 96 well screening plates (Greiner).
Test compounds were diluted, starting from a 10 mM dimethylsulfoxide (DMSO) stock solution, to serial dilutions in DMSO at 500× the final test concentration. Subsequently, these solutions were diluted to 5× the final test concentration in two 10-fold-dilution steps in assay medium. The final DMSO concentration of the 5× test compound solution was 1%. 20 μL of the 5× test compound solution was added to each test well of the 96 well plate previously plated with 80 μl cell suspension, resulting in the final test concentration with 0.2% DMSO.
The plates were incubated overnight (16-24 hours) at 37° C. and 5% CO2.
For the luciferase readout, the luciferase reagent (Britelite Plus, Perkin Elmer) was brought to RT. […] The luciferase luminescence signal was measured using a Wallac Victor Microplate Reader (Perkin Elmer).
The half maximum inhibitory concentration (IC50) values for the test compounds were calculated from the luciferase signal using GraphPad Prism software (GraphPad Software).

Compound | IC50 [1] [nM] | pIC50 (RORγ)
O=C(Cc1ccc(S(=O)(=O)NC2CC2)cc1)Nc1ccc(C(O)(C(F)(F)F)C(F)(F)F)c(F)c1 [Example 33, 2-(4-(N-cyclopropylsulfamoyl)phenyl)-N-(3-fluoro-4-(1,1,1,3,3,3-hexafluoro-2-hydroxypropan-2-yl)phenyl)acetamide] | ≤ 1000 | ≥ 7.00
O=C(Cc1ccc(S(=O)(=O)NC2CC2)cc1)Nc1ccc(C(O)(C(F)(F)F)C(F)(F)F)cc1F [Example 35, 2-(4-(N-cyclopropylsulfamoyl)phenyl)-N-(2-fluoro-4-(1,1,1,3,3,3-hexafluoro-2-hydroxypropan-2-yl)phenyl)acetamide] | ≤ 1000 | ≥ 7.00
CCS(=O)(=O)c1ccc(CC(=O)Nc2ccc(C(O)(C(F)(F)F)C(F)(F)F)cc2)cc1 [Example 2, 2-(4-(ethylsulfonyl)phenyl)-N-(4-(1,1,1,3,3,3-hexafluoro-2-hydroxypropan-2-yl)phenyl)acetamide] | ≤ 1000 | 
O=C(Cc1ccc(S(=O)(=O)CC2CC2)cc1)Nc1ccc(C(O)(C(F)(F)F)C(F)(F)F)cn1 [Example 107, 2-(4-((cyclopropylmethyl)sulfonyl)phenyl)-N-(5-(1,1,1,3,3,3-hexafluoro-2-hydroxypropan-2-yl)pyridin-2-yl)acetamide] | ≤ 1000 | ≥ 7.00
CCCOC(c1ccc(NC(=O)Cc2ccc(S(=O)(=O)NC3CC3)cc2)cc1)(C(F)(F)F)C(F)(F)F [Example 61, 2-(4-(N-cyclopropylsulfamoyl)phenyl)-N-(4-(1,1,1,3,3,3-hexafluoro-2-propoxypropan-2-yl)phenyl)acetamide] |  | ≥ 7.00
CCS(=O)(=O)c1ccc(CC(=O)Nc2ccc(C(O)(C3CC3)C(F)(F)F)cc2)cc1 (stereo not drawn) [Example 73, N-(4-(1-cyclopropyl-2,2,2-trifluoro-1-hydroxyethyl)phenyl)-2-(4-(ethylsulfonyl)phenyl)acetamide] |  | ≥ 6.00
CCS(=O)(=O)c1ccc(CC(=O)Nc2ccc(C(O)(C(F)(F)F)C(F)(F)F)cc2F)cc1 [Example 28, 2-(4-(ethylsulfonyl)phenyl)-N-(2-fluoro-4-(1,1,1,3,3,3-hexafluoro-2-hydroxypropan-2-yl)phenyl)acetamide] |  | ≥ 6.00
O=C(Cc1ccc(S(=O)(=O)NC2CC2)cc1)Nc1ccc(C(O)(C(F)(F)F)C(F)(F)F)cc1 [Example 9, 2-(4-(N-cyclopropylsulfamoyl)phenyl)-N-(4-(1,1,1,3,3,3-hexafluoro-2-hydroxypropan-2-yl)phenyl)acetamide] |  | ≥ 7.00
CC(C)CCCC(O)(c1ccc(NC(=O)Cc2ccc(S(=O)(=O)CC3CC3)cc2)cc1)C(F)(F)F (stereo not drawn) [Example 108, 2-(4-((cyclopropylmethyl)sulfonyl)phenyl)-N-(4-(1,1,1-trifluoro-2-hydroxy-6-methylheptan-2-yl)phenyl)acetamide] |  | ≥ 7.00
COC(c1ccc(NC(=O)Cc2ccc(S(=O)(=O)CC3CC3)cc2)cc1)(C(F)(F)F)C(F)(F)F [Example 54, 2-(4-((cyclopropylmethyl)sulfonyl)phenyl)-N-(4-(1,1,1,3,3,3-hexafluoro-2-methoxypropan-2-yl)phenyl)acetamide] |  | ≥ 7.00
CCCC(O)(c1ccc(NC(=O)Cc2ccc(S(=O)(=O)CC)cc2)cc1)C(F)(F)F (stereo not drawn) [Example 63, 2-(4-(ethylsulfonyl)phenyl)-N-(4-(1,1,1-trifluoro-2-hydroxypentan-2-yl)phenyl)acetamide] |  | ≥ 6.00
COc1cc(C(O)(C(F)(F)F)C(F)(F)F)ccc1NC(=O)Cc1ccc(S(=O)(=O)CC2CC2)cc1 [Example 55, 2-(4-((cyclopropylmethyl)sulfonyl)phenyl)-N-(4-(1,1,1,3,3,3-hexafluoro-2-hydroxypropan-2-yl)-2-methoxyphenyl)acetamide] |  | ≥ 7.00
CCCCOC(c1ccc(NC(=O)Cc2ccc(S(=O)(=O)CC3CC3)cc2)cc1)(C(F)(F)F)C(F)(F)F [Example 52, N-(4-(2-butoxy-1,1,1,3,3,3-hexafluoropropan-2-yl)phenyl)-2-(4-((cyclopropylmethyl)sulfonyl)phenyl)acetamide] |  | ≥ 7.00
O=C(Cc1ccc(S(=O)(=O)CC2CC2)cc1)Nc1ccc(C(OCC(F)(F)F)(C(F)(F)F)C(F)(F)F)cc1 [Example 113, 2-(4-((cyclopropylmethyl)sulfonyl)phenyl)-N-(4-(1,1,1,3,3,3-hexafluoro-2-(2,2,2-trifluoroethoxy)propan-2-yl)phenyl)acetamide] |  | ≥ 7.00
O=C(Cc1cccc(S(=O)(=O)NC2CC2)c1)Nc1ccc(C(O)(C(F)(F)F)C(F)(F)F)cc1F [Example 40, 2-(3-(N-cyclopropylsulfamoyl)phenyl)-N-(2-fluoro-4-(1,1,1,3,3,3-hexafluoro-2-hydroxypropan-2-yl)phenyl)acetamide] |  | ≥ 6.00
